Patent US20150105252A1, “SUBSTITUTED PYRAZOLES AS HERBICIDES” (E I DU PONT DE NEMOURS AND COMPANY, priority 2013, published 2015)

Experiments:
[1] = test system: wheat; test: Test A preemergence; format: in vivo, Triticum aestivum; settings: 0 to 100 scale
In short: (§1)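 Growth medium: loam soil blended with sand. Preemergence treatment used a directed soil spray right after planting; postemergence treatment targeted seedlings at one to two leaves (2–10 cm height). Response was judged by eye relative to untreated plants about 10 days later on a 0–100 control scale.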

[2] = test system: crabgrass, large; test: Test A postemergence; format: in vivo, Digitaria sanguinalis
In short: as §1

[3] = test system: velvetleaf; test: Test A postemergence; format: in vivo, Abutilon theophrasti
Excerpt: (§2) Seeds of plant species selected from barnyardgrass (Echinochloa crus-galli), kochia (Kochia scoparia), common ragweed (Ambrosia elation), Italian ryegrass (Lolium multiflorum), crabgrass, large (large crabgrass, Digitaria sanguinalis), foxtail, giant (giant foxtail, Setaria faberii), morningglory (Ipomoea spp.), pigweed (redroot pigweed, Amaranthus retroflexus), velvetleaf (Abutilon theophrasti), wheat (Triticum aestivum), and corn (Zea mays) were planted into a blend of loam soil and sand and treated preemergence with a directed soil spray using test chemicals formulated in a non-phytotoxic solvent mixture which included a surfactant.
(§3) At the same time, plants selected from these crop and weed species and also blackgrass (Alopecurus myosuroides), and galium (catchweed bedstraw, Galium aparine) were planted in pots containing the same blend of loam soil and sand and treated with postemergence applications of test chemicals formulated in the same manner. Plants ranged in height from 2 to 10 cm and were in the one- to two-leaf stage for the postemergence treatment. Treated plants and untreated controls were maintained in a greenhouse for approximately 10 days, after which time all treated plants were compared to untreated controls and visually evaluated for injury. Plant response ratings, summarized in Table A, are based on a 0 to 100 scale where 0 is no effect and 100 is complete control. A dash (-) response means no test result.

[4] = test system: foxtail, giant; test: Test A preemergence; format: in vivo, Setaria faberii; settings: 0 to 100 scale
Excerpt: as §2, §3

[5] = test system: pigweed; test: Test A postemergence; format: in vivo, Amaranthus retroflexus
Excerpt: as §2, §3

[6] = test system: corn; test: Test A postemergence; format: in vivo, Zea mays
Excerpt: as §2, §3

[7] = test system: morningglory; test: Test A preemergence; format: in vivo, Ipomoea spp.; settings: 0 to 100 scale
In short: as §1

[8] = test system: barnyardgrass; test: Test A preemergence; format: in vivo, Echinochloa crus-galli; settings: 0 to 100 scale
In short: as §1

[9] = test system: wheat; test: Test A postemergence; format: in vivo, Triticum aestivum
In short: as §1

[10] = test system: foxtail, giant; test: Test A postemergence; format: in vivo, Setaria faberii
In short: as §1

[11] = test system: crabgrass, large; test: Test A preemergence; format: in vivo, Digitaria sanguinalis; settings: 0 to 100 scale
Excerpt: as §2, §3

[12] = test system: corn; test: Test A preemergence; format: in vivo, Zea mays; settings: 0 to 100 scale
Excerpt: as §2, §3

[13] = test system: velvetleaf; test: Test A preemergence; format: in vivo, Abutilon theophrasti; settings: 0 to 100 scale
In short: as §1

[14] = test system: barnyardgrass; test: Test A postemergence; format: in vivo, Echinochloa crus-galli; settings: Postemergence
Excerpt: as §2, §3

[15] = test system: pigweed; test: Test A preemergence; format: in vivo, Amaranthus retroflexus; settings: Preemergence, 0 to 100 scale, 0 no effect, 100 complete control
Excerpt: as §2, §3

[16] = test system: morningglory; test: Test A postemergence; format: in vivo, Ipomoea spp.
Excerpt: as §2, §3

[17] = preemergence, 125 g ai/ha, visual injury, approx. 10 days
[18] = Postemergence, 500 g ai/ha, visual rating after approx. 10 days, 0 to 100 scale (0 no effect, 100 complete control)
[19] = postemergence, 125 g ai/ha, about 10 days, visual rating on 0 to 100 scale (0 no effect, 100 complete control)
[20] = Preemergence, 500 g ai/ha, 0 no effect, 100 complete control
[21] = 125 g ai/ha, 0 to 100 scale, 0 no effect, 100 complete control
[22] = 500 g ai/ha, visual rating after approx. 10 days, 0 to 100 scale (0 no effect, 100 complete control)
[23] = Preemergence, 1000 g ai/ha, 0 no effect, 100 complete control
[24] = Postemergence, 1000 g ai/ha, visual rating after approx. 10 days, 0 to 100 scale (0 no effect, 100 complete control)
[25] = 1000 g ai/ha, visual rating after approx. 10 days, 0 to 100 scale (0 no effect, 100 complete control)

## Cc1cc(C(=O)NCC(F)(F)F)nn1Cc1cccc(C(F)(F)F)c1F [Compound 9]
[1]; [17]
  Wheat plant response rating: 0
[2]; [18]
  Crabgrass, Large plant response rating: 0
[2]; [19]
  Crabgrass, Large plant response rating: 0
[3]; [18]
  Velvetleaf plant response rating: 0
[3]; [19]
  Velvetleaf plant response rating: 0
[4]; [20]
  Foxtail, Giant plant response rating: 20
[4]; [17]
  Foxtail, Giant plant response rating: 0
[5]; [18]
  Pigweed plant response rating: 0
[5]; [19]
  Pigweed plant response rating: 0
[6]; [18]
  Corn plant response rating: 0
[6]; [19]
  Corn plant response rating: 0
[7]; [20]
  Morningglory plant response rating: 0
[7]; [17]
  Morningglory plant response rating: 0
[8]; [20]
  Barnyardgrass plant response rating: 10
[8]; [17]
  Barnyardgrass plant response rating: 0
[9]; [18]
  Wheat plant response rating: 0
[9]; [19]
  Wheat plant response rating: 0
[10]; [18]
  Foxtail, Giant plant response rating: 0
[10]; [19]
  Foxtail, Giant plant response rating: 0
[11]; [20]
  Crabgrass, Large plant response rating: 20
[11]; [17]
  Crabgrass, Large plant response rating: 0
[12]; [20]
  Corn plant response rating: 0
[12]; [17]
  Corn plant response rating: 0
[13]; [20]
  Velvetleaf plant response rating: 0
[13]; [17]
  Velvetleaf plant response rating: 0
[14]; [21]
  Barnyardgrass plant response rating: 0
[14]; [22]
  Barnyardgrass plant response rating: 10
[15]; 500 g ai/ha
  Pigweed plant response rating: 30
[16]; [18]
  Morningglory plant response rating: 10
[16]; [19]
  Morningglory plant response rating: 0

## Cc1cc(C(=O)NCC(F)(F)F)nn1Cc1cc(F)cc(C(F)(F)F)c1 [Compound 13]
[1]; [17]
  Wheat plant response rating: 0
[2]; [18]
  Crabgrass, Large plant response rating: 30
[2]; [19]
  Crabgrass, Large plant response rating: 20
[3]; [18]
  Velvetleaf plant response rating: 20
[3]; [19]
  Velvetleaf plant response rating: 0
[4]; [20]
  Foxtail, Giant plant response rating: 50
[4]; [17]
  Foxtail, Giant plant response rating: 0
[5]; [18]
  Pigweed plant response rating: 60
[5]; [19]
  Pigweed plant response rating: 40
[6]; [18]
  Corn plant response rating: 0
[6]; [19]
  Corn plant response rating: 0
[7]; [17]
  Morningglory plant response rating: 0
[8]; [20]
  Barnyardgrass plant response rating: 0
[8]; [17]
  Barnyardgrass plant response rating: 0
[9]; [18]
  Wheat plant response rating: 0
[9]; [19]
  Wheat plant response rating: 0
[10]; [18]
  Foxtail, Giant plant response rating: 20
[10]; [19]
  Foxtail, Giant plant response rating: 0
[11]; [20]
  Crabgrass, Large plant response rating: 70
[11]; [17]
  Crabgrass, Large plant response rating: 10
[12]; [20]
  Corn plant response rating: 0
[12]; [17]
  Corn plant response rating: 0
[13]; [20]
  Velvetleaf plant response rating: 0
[13]; [17]
  Velvetleaf plant response rating: 0
[14]; [21]
  Barnyardgrass plant response rating: 0
[14]; [22]
  Barnyardgrass plant response rating: 20
[15]; 500 g ai/ha
  Pigweed plant response rating: 90
[16]; [18]
  Morningglory plant response rating: 100
[16]; [19]
  Morningglory plant response rating: 50

## CCc1cc(C(=O)NC2CC2)nn1Cc1cccc(C(F)(F)F)c1 [Compound 15]
[1]; [23]
  Wheat plant response rating: 20
[2]; [24]
  Crabgrass, Large plant response rating: 90
[3]; [24]
  Velvetleaf plant response rating: 100
[4]; [23]
  Foxtail, Giant plant response rating: 100
[5]; [24]
  Pigweed plant response rating: 80
[6]; [24]
  Corn plant response rating: 70
[7]; [23]
  Morningglory plant response rating: 90
[8]; [23]
  Barnyardgrass plant response rating: 90
[9]; [24]
  Wheat plant response rating: 50
[10]; [24]
  Foxtail, Giant plant response rating: 90
[11]; [23]
  Crabgrass, Large plant response rating: 100
[12]; [23]
  Corn plant response rating: 20
[13]; [23]
  Velvetleaf plant response rating: 100
[14]; [25]
  Barnyardgrass plant response rating: 80
[15]; 1000 g ai/ha
  Pigweed plant response rating: 90
[16]; [24]
  Morningglory plant response rating: 100

## CCCNC(=O)c1cc(SC)n(Cc2cccc(C(F)(F)F)c2)n1 [Compound 25]
[1]; [23]
  Wheat plant response rating: 0
[2]; [24]
  Crabgrass, Large plant response rating: 30
[3]; [24]
  Velvetleaf plant response rating: 50
[4]; [23]
  Foxtail, Giant plant response rating: 10
[5]; [24]
  Pigweed plant response rating: 10
[6]; [24]
  Corn plant response rating: 40
[7]; [23]
  Morningglory plant response rating: 0
[8]; [23]
  Barnyardgrass plant response rating: 0
[9]; [24]
  Wheat plant response rating: 0
[10]; [24]
  Foxtail, Giant plant response rating: 20
[11]; [23]
  Crabgrass, Large plant response rating: 20
[12]; [23]
  Corn plant response rating: 0
[13]; [23]
  Velvetleaf plant response rating: 0
[14]; [25]
  Barnyardgrass plant response rating: 10
[15]; 1000 g ai/ha
  Pigweed plant response rating: 0
[16]; [24]
  Morningglory plant response rating: 100
